The target in one experiment is T1, BRAF V600E (Homo sapiens, UniProt P15056, V600E).
T1 construct: expressed in transfected cells
The experiment in a line: Cellular assay of target protein degradation, T-Rex 293 cells stably transfected with HA-BRAF_V600E (HA immunofluorescence, high content imaging). Type of experiment: cell-based. The conditions noted are these: T-Rex 293 HA-BRAF V600E; for DC50: half maximal degradation, read-out: BRaf V600E DC50; for Dmax: maximum degradation observed. In short, it runs like this: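 HA immunofluorescence on fixed cells, imaged by high-content reader, measured loss of HA-BRAF V600E in stably transfected T-Rex 293 cells induced with 1 ng/mL doxycycline. Compounds were applied for 24 h at 37 °C (final 0.1 nM–1 μM, 0.1% DMSO); DC50 and Dmax (% of control) were reported.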

The target of another experiment is T2, BRAF G466V (Homo sapiens, UniProt P15056, G466V).
T2 construct: expressed in transfected cells
Briefly: Cellular assay of target protein degradation, T-Rex 293 cells stably transfected with HA-BRAF G466V (HA immunofluorescence, high content imaging). It counts as cell-based. The conditions noted are these: T-Rex 293 HA-BRAF G466V; for DC50: half maximal degradation, read-out: BRaf G466V DC50; for Dmax: maximum degradation observed. In short, it runs like this: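 HA-BRAF G466V levels were read by HA immunofluorescence and high-content imaging after 24 h compound exposure (final 30 nM–3 pM, 0.1% DMSO, 37 °C). Expression was induced with 0.75 ng/mL doxycycline. Outputs: half-maximal degradation concentration (DC50) and maximal degradation (Dmax) relative to control.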

T1 sequence (P15056 whole entry V600E): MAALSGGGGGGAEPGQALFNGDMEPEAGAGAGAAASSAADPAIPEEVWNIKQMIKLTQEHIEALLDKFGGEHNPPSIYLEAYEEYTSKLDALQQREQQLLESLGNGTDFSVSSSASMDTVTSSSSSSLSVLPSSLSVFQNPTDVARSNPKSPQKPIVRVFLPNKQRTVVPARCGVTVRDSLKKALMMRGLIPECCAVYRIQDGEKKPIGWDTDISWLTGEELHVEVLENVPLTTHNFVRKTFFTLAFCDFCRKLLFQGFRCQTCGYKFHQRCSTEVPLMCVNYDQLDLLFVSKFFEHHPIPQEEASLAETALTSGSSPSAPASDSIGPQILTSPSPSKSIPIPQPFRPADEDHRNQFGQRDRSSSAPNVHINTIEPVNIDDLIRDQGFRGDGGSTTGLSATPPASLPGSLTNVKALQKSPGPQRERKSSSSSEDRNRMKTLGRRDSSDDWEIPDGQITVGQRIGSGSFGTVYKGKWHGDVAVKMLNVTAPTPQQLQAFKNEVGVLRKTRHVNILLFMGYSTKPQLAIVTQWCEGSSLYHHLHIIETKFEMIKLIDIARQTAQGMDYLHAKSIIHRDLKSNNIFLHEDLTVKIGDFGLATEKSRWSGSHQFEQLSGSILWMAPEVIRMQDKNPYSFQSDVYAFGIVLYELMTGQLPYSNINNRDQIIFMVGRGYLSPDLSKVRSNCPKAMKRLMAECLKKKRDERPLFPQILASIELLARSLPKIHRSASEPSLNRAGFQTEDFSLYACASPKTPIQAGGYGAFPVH
T2 sequence (P15056 whole entry G466V): as the sequence (P15056 whole entry V600E) above, with G466V, E600V counted along it

As for `O=C1CC[C@@H](NC(=O)c2ccc(N3CCN(CCc4ccc(-c5cnc6[nH]cc(C(=O)c7c(F)ccc(NS(=O)(=O)N8CC[C@@H](F)C8)c7F)c6c5)cc4)CC3)cc2F)C(=O)N1` [Compound 28, 4-{4-[2-(4-{3-[2,6-difluoro-3-({[(3R)-3-fluoropyrrolidin-1-yl]sulfonyl}amino)benzoyl]-1H-pyrrolo[2,3-b]pyridin-5-yl}phenyl)ethyl]piperazin-1-yl}-N-[(3R)-2,6-dioxopiperidin-3-yl]-2-fluorobenzamide], on BRAF V600E, the 50% degradation concentration (DC50) is 50 to 500 nM and the maximal degradation (Dmax) is more than 70%. Moreover, at BRAF G466V, the half-maximal degradation concentration (DC50) is less than 1 nM and the Dmax is 35 to 70%.

Regarding `O=C1CC[C@H](NC(=O)c2ccc(N3CCC(CN4CC5(C4)CN(c4ccc(-c6cnc7[nH]cc(C(=O)c8c(F)ccc(NS(=O)(=O)N9CC[C@@H](F)C9)c8F)c7c6)cc4)C5)CC3)cc2F)C(=O)N1` [Compound 29, 4-(4-{[6-(4-{3-[2,6-difluoro-3-({[(3R)-3-fluoropyrrolidin-1-yl]sulfonyl}amino)benzoyl]-1H-pyrrolo[2,3-b]pyridin-5-yl}phenyl)-2,6-diazaspiro[3.3]heptan-2-yl]methyl}piperidin-1-yl)-N-[(3S)-2,6-dioxopiperidin-3-yl]-2-fluorobenzamide], on BRAF V600E, the half-maximal degradation concentration (DC50) lay within 5 to 50 nM and the Dmax is 35 to 70%. In addition, on BRAF G466V, the DC50 lay within 1 to 10 nM and the greatest degradation seen (Dmax) was in the range of 35 to 70%.

With `O=C1CC[C@@H](NC(=O)c2ccc(N3CCC(CN4CC5(C4)CN(c4ccc(-c6cnc7[nH]cc(C(=O)c8c(F)ccc(NS(=O)(=O)N9CC[C@@H](F)C9)c8F)c7c6)cc4)C5)CC3)cc2F)C(=O)N1` [Compound 30, 4-(4-{[6-(4-{3-[2,6-difluoro-3-({[(3R)-3-fluoropyrrolidin-1-yl]sulfonyl}amino)benzoyl]-1H-pyrrolo[2,3-b]pyridin-5-yl}phenyl)-2,6-diazaspiro[3.3]heptan-2-yl]methyl}piperidin-1-yl)-N-[(3R)-2,6-dioxopiperidin-3-yl]-2-fluorobenzamide], the DC50 on BRAF V600E is more than 500 nM. Moreover, at BRAF G466V, the DC50 fell in the range of 10 to 30 nM and the greatest degradation seen (Dmax) is less than 35%.

With `O=C1CC[C@H](NC(=O)c2ccc(N3CC4(CN(CC5CCN(c6ccc(-c7cnc8[nH]cc(C(=O)c9c(F)ccc(NS(=O)(=O)N%10CC[C@@H](F)C%10)c9F)c8c7)cc6)CC5)C4)C3)cc2F)C(=O)N1` [Compound 31, 4-(6-{[1-(4-{3-[2,6-difluoro-3-({[(3R)-3-fluoropyrrolidin-1-yl]sulfonyl}amino)benzoyl]-1H-pyrrolo[2,3-b]pyridin-5-yl}phenyl)piperidin-4-yl]methyl}-2,6-diazaspiro[3.3]heptan-2-yl)-N-[(3S)-2,6-dioxopiperidin-3-yl]-2-fluorobenzamide], at BRAF V600E, the 50% degradation concentration (DC50) fell in the range of 5 to 50 nM and the maximal degradation (Dmax) lay within 35 to 70%. At BRAF G466V, the DC50 is less than 1 nM and the Dmax is 35 to 70%.

As for `O=C1CCC(N2Cc3cc(C(O)CN4CCN(c5ccc(-c6cnc7[nH]cc(C(=O)c8c(F)ccc(NS(=O)(=O)N9CC[C@@H](F)C9)c8F)c7c6)cc5)CC4)ccc3C2=O)C(=O)N1` (stereo partly drawn) [Compound 32, (3R)-N-(3-{5-[4-(4-{2-[2-(2,6-dioxopiperidin-3-yl)-1-oxo-2,3-dihydro-1H-isoindol-5-yl]-2-hydroxyethyl}piperazin-1-yl)phenyl]-1H-pyrrolo[2,3-b]pyridin-3-carbonyl}-2,4-difluorophenyl)-3-fluoropyrrolidine-1-sulfonamide], the 50% degradation concentration (DC50) at BRAF V600E was less than 5 nM; at BRAF G466V, 1 to 10 nM. The Dmax on BRAF V600E and at BRAF G466V was 35 to 70% throughout.

The values are drawn from patent US12180193B2, “Accelerating fibrosarcoma protein degrading compounds and associated methods of use” (Arvinas Operations, Inc., priority 2020, dated 2024).
